Laboratory results from patent US20240058324A1, “COMPOSITION FOR PREVENTION AND TREATING DEMENTIA THROUGH THE COMBINATION OF PDE5 INHIBITORS AND GLUCOCORTICOID RECEPTOR ANTAGONISTS” (ARIBIO CO., LTD., priority 2021, published 2024).

Legend:
Aβ42 = assay: Amyloid Beta 42 Human ELISA, amount of Aβ42 in RA-differentiated SH-SY5Y cells treated with Aβ1-42 oligomer; format: cell-based; conditions: 24 h
Experimental: To determine the amount of change in amyloid beta, […] cells were dispensed into T-25 flask.
For cell adhesion and stabilization, cells were incubated for 24 hours in DMEM/F12 Complete Medium (HyClone) containing 10% FBS (HyClone) and 1% P/S (HyClone) at 37° C. under 5% CO2 condition in a CO2 incubator (Thermo Fisher Scientific Forma).
After 24 hours of cell dispensing, the cell culture medium is removed for neuron-like differentiation, and replaced with DMEM/F12 differentiation media containing 1% FBS (HyClone), 1% P/S (HyClone), 10 μM all-trans-retinoic acid (RA; Sigma--Aldrich, St. Louis, MO, USA).
On the third day of differentiation, the medium was replaced with a new DMEM/F12 differentiation medium. On the sixth day of differentiation, the medium of the untreated control group was replaced with a new DMEM/F12 differentiation medium and the medium of the sample treatment group was replaced with a various conditions by adding a new DMEM/F12 differentiation medium under various conditions.
Human Aβ1-42 (Abeam, Cambridge, MA, USA) was added upto 10 μM to DMEM/F12 Complete Medium (HyClone) containing 1% FBS (HyClone) and 1% P/S (HyClone) to form Aβ1-42 oligomer and left for 3 hours in a CO2 incubator (Thermo Fisher Scientific Forma) under 37° C. and 5% CO2 conditions to form Aβ1-42 oligomer.
In order to confirm the Aβ 1-42 change, the existing cell culture medium was removed from the RA-differentiated SH-SY5Y neuron-like cells, replaced with DMEM/F12 Complete Medium (HyClone) containing Aβ1-42 oligomer ([…] Fisher Scientific Forma) at 37° C. under 5% CO2 conditions to induce Aβ1-42 oligomer-induced cell damage.
In order to measure the amount of Aβ42 (pg/mL) in the cell, the cells were recovered and treated with the cell lysis buffer.
Thereafter, after centrifugation at 14,000 rpm 4° C. for 10 minutes, the supernatant was transferred to recover the protein. The amount of protein was quantified using the Pierce™ BCA Protein Assay Kit (Thermo Fisher Scientific). Then, the amount of Aβ42 in cells was measured using a Human Aβ42 ELISA Kit (Invitrogen).

IL-1β = assay: Real time RT-qPCR of pro-inflammatory cytokine IL-1β in LPS-treated IMG microglia cells; format: cell-based, mouse; conditions: LPS 100 ng/ml
Experimental: (§1) The IMG cells, a mouse microglia cell line used in the experiments, were cultured, and maintained in DMEM complete medium (HyClone) containing 10% fetal bovine serum (FBS; Australian Orgin, HyClone, Logan, UT, USA) and 1% penicillin/streptomycin (P/S; HyClone) at 37° C. with 5% CO2 in a humidified CO2 incubator (311-TIF, Thermo Fisher Scientific Forma, MA, USA). Total 2×10^5 cells were seeded in each well of the 6-well plate and they were incubated for 24 h in the humidified CO2 incubator as mentioned above. Further, 100 ng/ml of LPS and the drugs, AR1001 2 μM and GR modulator (CORT-108297) 6, 12, 24, 36, 48 μM were treated individually or in combination.
(§2) The cells were scraped using a cell scraper, and 2 mL of the culture solution was collected in a 15 mL conical tube, It was centrifuged at 3,000 RPM for 5 min and the supernatant (culture solution) was discarded. The pellet was resuspended in 1 mL of Trizol and it was transferred to 1.5 mL microfuge tube. Further, 0.2 mL of chloroform was added and it was vortexed for 1 min. The microfuge tube was kept in a stand for 2 min at room temperature. After centrifugation at 12,000×g for 10 min at 4° C., the supernatant (approx 500 μL) separated in a fresh microfuge tube. Equal volume of isopropanol was added to the supernatant and mixed the solution well. It was put in the microfuge tube stand for 10 min at room temperature and thereafter, centrifuged at 12,000×g for 10 min at 4° C. The supernatant was discarded and the pellet was washed twice with 75% ethanol. The RNA pellet was dried and dissolved in 10 μL DEPC treated water. After quantification of the RNA, it was converted to cDNA following the PrimeScript™ II 1st strand cDNA Synthesis Kit (Takara) protocol.
(§3) The sample cDNAs were amplified with gene specific primers and SYBR green PCR master mix (ThermoFisher) in the model Quant Studio 5 Thermal cycler (Applied biosystems). The amplification conditions were as follows—polymerase activation at 50° C. for 2 min, predenaturation preceding at 95° C. for 10 min, total 40 cycles of denaturation at 95° C. for 15 sec, annealing at 60° C. for 30 sec and extension at 72° C. for 30 sec. The specific primer sequences are mentioned in Table-1.

TNF-α = assay: Real time RT-qPCR of pro-inflammatory cytokine TNF-α in LPS-treated IMG microglia cells; format: cell-based, mouse; conditions: LPS 100 ng/ml
Experimental: as §1, §2, §3

[1] = CORT-108297 0.1 μM alone, SH-SY5Y, Aβ 10 μM
[2] = CORT-108297 0.3 μM alone, SH-SY5Y, Aβ 10 μM
[3] = CORT-108297 0.6 μM alone, SH-SY5Y, Aβ 10 μM
[4] = CORT-108297 1.2 μM alone, SH-SY5Y, Aβ 10 μM
[5] = CORT-108297 1.8 μM alone, SH-SY5Y, Aβ 10 μM
[6] = CORT-108297 2.4 μM alone, SH-SY5Y, Aβ 10 μM
[7] = CORT-108297 3.0 μM alone, SH-SY5Y, Aβ 10 μM

Compound: CCCOc1ccc(S(=O)(=O)N2CCN(CCO)CC2)cc1-c1nc2c(CCC)cn(CC)c2c(=O)[nH]1 [AR1001, mirodenafil]
- Aβ42 concentration Average concentration (Aβ42; AR1001 0.1 μM alone, SH-SY5Y neuron-like cells, Aβ1-42 oligomer 10 μM): 46.45 pg/mL
- Aβ42 Reduction rate Average reduction rate (Aβ42; AR1001 0.1 μM alone, SH-SY5Y, Aβ 10 μM): 1.77%
- IL1β Reduction (%) (IL-1β; AR1001 2 μM alone): 4.70%
- TNFα Reduction (%) (TNF-α; AR1001 2 μM alone): 8.58%

Compound: CCOC[C@]12Cc3cnn(-c4ccc(F)cc4)c3C=C1CCN(S(=O)(=O)c1ccc(C(F)(F)F)cc1)C2 [CORT-108297]
- Aβ42 Reduction rate Average reduction rate (Aβ42; [1]): 4.26%
- Aβ42 concentration Average concentration (Aβ42; [1]): 45.40 pg/mL
- Aβ42 Reduction rate Average reduction rate (Aβ42; [2]): 4.24%
- Aβ42 concentration Average concentration (Aβ42; [2]): 45.40 pg/mL
- Aβ42 Reduction rate Average reduction rate (Aβ42; [3]): 6.88%
- Aβ42 concentration Average concentration (Aβ42; [3]): 44.29 pg/mL
- Aβ42 Reduction rate Average reduction rate (Aβ42; [4]): 9.34%
- Aβ42 concentration Average concentration (Aβ42; [4]): 43.25 pg/mL
- Aβ42 Reduction rate Average reduction rate (Aβ42; [5]): 11.97%
- Aβ42 concentration Average concentration (Aβ42; [5]): 42.14 pg/mL
- Aβ42 Reduction rate Average reduction rate (Aβ42; [6]): 17.91%
- Aβ42 concentration Average concentration (Aβ42; [6]): 39.64 pg/mL
- Aβ42 Reduction rate Average reduction rate (Aβ42; [7]): 31.34%
- Aβ42 concentration Average concentration (Aβ42; [7]): 33.97 pg/mL
- IL1β Reduction (%) (IL-1β; CORT-108297 6 μM alone): 7.02%
- IL1β Reduction (%) (IL-1β; CORT-108297 12 μM alone): 8.38%
- IL1β Reduction (%) (IL-1β; CORT-108297 24 μM alone): 17.88%
- IL1β Reduction (%) (IL-1β; CORT-108297 36 μM alone): 35.86%
- IL1β Reduction (%) (IL-1β; CORT-108297 48 μM alone): 57.37%
- TNFα Reduction (%) (TNF-α; CORT-108297 6 μM alone): 9.41%
- TNFα Reduction (%) (TNF-α; CORT-108297 12 μM alone): 15.52%
- TNFα Reduction (%) (TNF-α; CORT-108297 24 μM alone): 23.86%
- TNFα Reduction (%) (TNF-α; CORT-108297 36 μM alone): 37.30%
- TNFα Reduction (%) (TNF-α; CORT-108297 48 μM alone): 52.51%
